Measurements from ChEMBL document CHEMBL4052741, “Macrocyclic inhibitors of Factor XIa: Discovery of alkyl-substituted macrocyclic amide linkers with improved potency” (Bioorg Med Chem Lett, 2017).

How the values were obtained:
[1] = tested on: Plasma; assay: Anticoagulant activity in human platelet rich plasma assessed as plasma concentration required for 50% increase in clotting time by aPTT assay; assay type: functional
[2] = molecular target: Coagulation factor XI (Homo sapiens, UniProt P03951); assay: Inhibition of human Factor XIa using S-2366 as chromogenic substrate after 60 mins by Lineweaver-Burk plot analysis
[3] = Permeability of the compound from basolateral to apical side in human Caco2 cells; assay type: ADME, cell-based; conditions: Caco-2, read-out: permeability
[4] = Permeability of the compound from apical to basolateral side in human Caco2 cells; assay type: ADME, cell-based; conditions: Caco-2, read-out: permeability
[5] = Half life in human liver microsomes; assay type: ADME, microsome
[6] = Protein binding in human plasma; assay type: ADME, cell-free; conditions: read-out: PPB (converted)
[7] = Oral bioavailability in Sprague-Dawley rat at 1.09 mg/kg administered as cassette dose by LC-MS/MS analysis; assay type: ADME, organism-based; conditions: in vivo
[8] = Volume of distribution at steady state in Sprague-Dawley rat at 0.55 mg/kg, iv or 1.09 mg/kg, po administered as cassette dose by LC-MS/MS analysis; assay type: ADME, organism-based; conditions: in vivo, read-out: Vdss
[9] = Clearance in Sprague-Dawley rat at 0.55 mg/kg, iv or 1.09 mg/kg, po administered as cassette dose by LC-MS/MS analysis; assay type: ADME, organism-based; conditions: in vivo
[10] = AUC in Sprague-Dawley rat at 0.55 mg/kg, iv or 1.09 mg/kg, po by LC-MS/MS analysis; assay type: ADME, organism-based; conditions: in vivo
[11] = Half life in Sprague-Dawley rat at 0.55 mg/kg, iv or 1.09 mg/kg, po administered as cassette dose by LC-MS/MS analysis; assay type: ADME, organism-based; conditions: in vivo
[12] = Clearance in Sprague-Dawley rat at 0.55 mg/kg, iv or 1.11 mg/kg, po administered as cassette dose by LC-MS/MS analysis; assay type: ADME, organism-based; conditions: in vivo
[13] = Volume of distribution at steady state in Sprague-Dawley rat at 0.55 mg/kg, iv or 1.11 mg/kg, po administered as cassette dose by LC-MS/MS analysis; assay type: ADME, organism-based; conditions: in vivo, read-out: Vdss
[14] = Half life in Sprague-Dawley rat at 0.55 mg/kg, iv or 1.11 mg/kg, po administered as cassette dose by LC-MS/MS analysis; assay type: ADME, organism-based; conditions: in vivo
[15] = AUC in Sprague-Dawley rat at 0.55 mg/kg, iv or 1.11 mg/kg, po by LC-MS/MS analysis; assay type: ADME, organism-based; conditions: in vivo
[16] = Oral bioavailability in Sprague-Dawley rat at 1.11 mg/kg by LC-MS/MS analysis; assay type: ADME, organism-based; conditions: in vivo
[17] = Clearance in Sprague-Dawley rat at 0.75 mg/kg, iv or 1.5 mg/kg, po administered as cassette dose by LC-MS/MS analysis; assay type: ADME, organism-based; conditions: in vivo
[18] = AUC in Sprague-Dawley rat at 0.75 mg/kg, iv or 1.5 mg/kg, po by LC-MS/MS analysis; assay type: ADME, organism-based; conditions: in vivo
[19] = Oral bioavailability in Sprague-Dawley rat at 1.5 mg/kg by LC-MS/MS analysis; assay type: ADME, organism-based; conditions: in vivo
[20] = Volume of distribution at steady state in Sprague-Dawley rat at 0.75 mg/kg, iv or 1.5 mg/kg, po administered as cassette dose by LC-MS/MS analysis; assay type: ADME, organism-based; conditions: in vivo, read-out: Vdss
[21] = Half life in Sprague-Dawley rat at 0.75 mg/kg, iv or 1.5 mg/kg, po administered as cassette dose by LC-MS/MS analysis; assay type: ADME, organism-based; conditions: in vivo

Coagulation factor XI, sequence (P03951 19-387 limits assumed): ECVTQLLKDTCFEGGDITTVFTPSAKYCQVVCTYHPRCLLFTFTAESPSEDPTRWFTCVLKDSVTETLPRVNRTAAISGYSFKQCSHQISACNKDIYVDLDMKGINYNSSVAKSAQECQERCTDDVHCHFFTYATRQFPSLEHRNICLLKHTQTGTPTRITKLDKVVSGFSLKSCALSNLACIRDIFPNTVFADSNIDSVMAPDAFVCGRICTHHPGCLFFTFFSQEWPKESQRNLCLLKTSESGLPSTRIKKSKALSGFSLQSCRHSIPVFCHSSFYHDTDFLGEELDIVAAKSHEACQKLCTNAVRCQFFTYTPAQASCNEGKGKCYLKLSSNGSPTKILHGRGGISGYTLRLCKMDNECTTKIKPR
Coagulation factor XI, sequence (P03951 388-625 limits assumed): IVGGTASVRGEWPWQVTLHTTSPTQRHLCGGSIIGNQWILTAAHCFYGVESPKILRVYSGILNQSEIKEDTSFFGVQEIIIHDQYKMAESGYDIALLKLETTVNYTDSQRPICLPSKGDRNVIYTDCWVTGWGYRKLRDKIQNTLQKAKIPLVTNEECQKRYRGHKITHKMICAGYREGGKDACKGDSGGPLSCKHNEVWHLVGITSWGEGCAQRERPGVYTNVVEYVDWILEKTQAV

Ki [2] | Structure (SMILES) | EC1.5 [1] | other results
5.9 nM | COC(=O)Nc1ccc2c(c1)NC(=O)CCC(C)CC[C@H](NC(=O)/C=C/c1cc(Cl)ccc1-n1cnnn1)c1nc-2c[nH]1 (single isomer, unassigned; diastereomer A) | 2.5 µM | 
35 nM | COC(=O)Nc1ccc2c(c1)NC(=O)CC(C)CC[C@H](NC(=O)/C=C/c1cc(Cl)ccc1-n1cnnn1)c1nc-2c[nH]1 (single isomer, unassigned; diastereomer B) | 31 µM | 
0.13 nM | COC(=O)Nc1ccc2c(c1)NC(=O)C[C@@H](C)/C=C/C[C@H](NC(=O)/C=C/c1cc(Cl)ccc1-n1cnnn1)c1nc-2c[nH]1 | 0.38 µM | 
21 nM | COC(=O)Nc1ccc2c(c1)NC(=O)[C@@H](C(C)C)CCC[C@H](NC(=O)/C=C/c1cc(Cl)ccc1-n1cnnn1)c1nc-2c[nH]1 | 64 µM | 
6.5 nM | COC(=O)Nc1ccc2c(c1)NC(=O)C(C)CCCC[C@H](NC(=O)/C=C/c1cc(Cl)ccc1-n1cnnn1)c1nc-2c[nH]1 (single isomer, unassigned; diastereomer A) | 5.3 µM | 
10 nM | COC(=O)Nc1ccc2c(c1)NC(=O)[C@H](C)CCC[C@H](NC(=O)c1c(F)cc(C)cc1F)c1nc-2c(Cl)[nH]1 | 2 µM | Papp B→A [3]: 11.1 ×10⁻⁶ cm/s; Papp A→B [4]: < 1.5 ×10⁻⁶ cm/s; half-life [5]: 8 min
 | COC(=O)Nc1ccc2c(c1)NC(=O)C[C@@H](C)CCC[C@H](NC(=O)/C=C/c1cc(Cl)ccc1-n1cnnn1)c1nc-2c[nH]1 | 1.1 µM | fraction unbound [6]: 0.02
 | COC(=O)Nc1ccc2c(c1)NC(=O)[C@H](C)CCC[C@H](NC(=O)/C=C/c1cc(Cl)ccc1-n1cnnn1)c1nc-2c[nH]1 | 0.39 µM | 
 | COC(=O)Nc1ccc2c(c1)NC(=O)CC/C=C/C[C@H](NC(=O)/C=C/c1cc(Cl)ccc1-n1cnnn1)c1nc-2c(Cl)[nH]1 |  | bioavailability [7]: 0.2%; Vd [8]: 0.4 L/kg; Papp B→A [3]: 5.8 ×10⁻⁶ cm/s; Papp A→B [4]: < 1.5 ×10⁻⁶ cm/s; clearance [9]: 24 mL/min/kg; AUC [10]: 0.002 µM·h; half-life [11]: 42 min
44 nM | COC(=O)Nc1ccc2c(c1)NC(=O)C[C@@H](C)CCC[C@H](NC(=O)c1c(F)cc(C)cc1F)c1nc-2c(Cl)[nH]1 | 12 µM | Papp B→A [3]: 25.1 ×10⁻⁶ cm/s; Papp A→B [4]: 1.8 ×10⁻⁶ cm/s; half-life [5]: 45 min
16 nM | COC(=O)Nc1ccc2c(c1)NC(=O)CC/C=C/C[C@H](NC(=O)c1c(F)cc(C)cc1F)c1nc-2c(Cl)[nH]1 | 6.6 µM | Papp B→A [3]: 20 ×10⁻⁶ cm/s; Papp A→B [4]: < 1.5 ×10⁻⁶ cm/s; clearance [12]: 5.6 mL/min/kg; half-life [5]: 17 min; Vd [13]: 0.4 L/kg; half-life [14]: 54 min; AUC [15]: 2.08 µM·h; bioavailability [16]: 41%
0.07 nM | COC(=O)Nc1ccc2c(c1)NC(=O)[C@H](C)CCC[C@H](NC(=O)/C=C/c1cc(Cl)ccc1-n1cnnn1)c1nc-2c(Cl)[nH]1 | 1.2 µM | 
 | COC(=O)Nc1ccc2c(c1)NC(=O)CCCCC[C@H](NC(=O)/C=C/c1cc(Cl)ccc1-n1cnnn1)c1nc-2c[nH]1 |  | fraction unbound [6]: 0.038
36 nM | COC(=O)Nc1ccc2c(c1)NC(=O)CC(C)CC[C@H](NC(=O)/C=C/c1cc(Cl)ccc1-n1cnnn1)c1nc-2c[nH]1 (single isomer, unassigned; diastereomer A) | 37 µM | 
0.14 nM | COC(=O)Nc1ccc2c(c1)NC(=O)[C@H](C(C)C)CCC[C@H](NC(=O)/C=C/c1cc(Cl)ccc1-n1cnnn1)c1nc-2c[nH]1 | 1.1 µM | 
12 nM | COC(=O)Nc1ccc2c(c1)NC(=O)C[C@@H](C)/C=C/C[C@H](NC(=O)c1c(F)cc(C)cc1F)c1nc-2c(Cl)[nH]1 | 2.7 µM | Papp B→A [3]: 18.9 ×10⁻⁶ cm/s; Papp A→B [4]: < 1.5 ×10⁻⁶ cm/s; half-life [5]: 35 min; clearance [17]: 6 mL/min/kg; AUC [18]: 0.991 µM·h; bioavailability [19]: 16%; Vd [20]: 0.3 L/kg; half-life [21]: 54 min
 | COC(=O)Nc1ccc2c(c1)NC(=O)C[C@H](C)CCC[C@H](NC(=O)/C=C/c1cc(Cl)ccc1-n1cnnn1)c1nc-2c[nH]1 | 27 µM | 
2 nM | COC(=O)Nc1ccc2c(c1)NC(=O)C[C@H](C)/C=C/C[C@H](NC(=O)/C=C/c1cc(Cl)ccc1-n1cnnn1)c1nc-2c[nH]1 | 0.98 µM | 
31 nM | COC(=O)Nc1ccc2c(c1)NC(=O)C(C)CCCC[C@H](NC(=O)/C=C/c1cc(Cl)ccc1-n1cnnn1)c1nc-2c[nH]1 (single isomer, unassigned; diastereomer B) | 32 µM | 
18 nM | COC(=O)Nc1ccc2c(c1)NC(=O)CCC(C)CC[C@H](NC(=O)/C=C/c1cc(Cl)ccc1-n1cnnn1)c1nc-2c[nH]1 (single isomer, unassigned; diastereomer B) | 12 µM | 
0.33 nM | COC(=O)Nc1ccc2c(c1)NC(=O)C(C)C/C=C/C[C@H](NC(=O)/C=C/c1cc(Cl)ccc1-n1cnnn1)c1nc-2c[nH]1 (single isomer, unassigned; diastereomer A) | 0.67 µM | 
2.7 nM | COC(=O)Nc1ccc2c(c1)NC(=O)C(C)C/C=C/C[C@H](NC(=O)/C=C/c1cc(Cl)ccc1-n1cnnn1)c1nc-2c[nH]1 (single isomer, unassigned; diastereomer B) | 1.2 µM | 
 | COC(=O)Nc1ccc2c(c1)NC(=O)[C@@H](C)CCC[C@H](NC(=O)/C=C/c1cc(Cl)ccc1-n1cnnn1)c1nc-2c[nH]1 | 0.63 µM | 
 | CC[C@@H]1CCC[C@H](NC(=O)/C=C/c2cc(Cl)ccc2-n2cnnn2)c2nc(c[nH]2)-c2ccc(NC(=O)OC)cc2NC1=O | 0.52 µM | 
0.06 nM | COC(=O)Nc1ccc2c(c1)NC(=O)C[C@@H](C)CCC[C@H](NC(=O)/C=C/c1cc(Cl)ccc1-n1cnnn1)c1nc-2c(Cl)[nH]1 | 0.57 µM | 
 | CC[C@H]1CCC[C@H](NC(=O)/C=C/c2cc(Cl)ccc2-n2cnnn2)c2nc(c[nH]2)-c2ccc(NC(=O)OC)cc2NC1=O | 4 µM | 
